Reference: patent US20210347709A1, “RADIOFLUORINATED GPC3-BINDING PEPTIDES FOR PET IMAGING OF HEPATOCELLULAR CARCINOMA” (University of Southern California, priority 2020, published 2021)
Read-outs that look alike come from different tables or passages of the source.

Columns and labels:
[1] = MicroPET/CT imaging and biodistribution, McA-RH7777 tumor model; format: in vivo, nude mice; conditions: both sexes, BALB/c nude, mouse, iv, 5.55 MBq, total radioactivity; for tissue to tissue ratio at 0.5 h / tissue to tissue ratio at 1 h / tissue to tissue ratio at 2 h: McA-RH7777 (GPC3−) tumor bearing mice; for tissue to tissue ratio at 0.5 h / tissue uptake at 0.5 h: 30 min; for tissue to tissue ratio at 1 h / tissue uptake at 1 h: 60 min; for tissue uptake at 0.5 h / tissue uptake at 1 h / tissue uptake at 2 h: McA-RH7777 (GPC3−) tumor model, PET; for tissue uptake at 2 h / tissue to tissue ratio at 2 h: 120 min
Method: (§1) MicroPET/CT Imaging and Biodistribution. MicroPET/CT scans were carried out using a Siemens Inveon PET/CT scanner (Siemens, Germany). Tumor-bearing mice (n=3/group) were intravenously injected with 5.55 MBq of Al[^18F]F-GP2076 or Al[^18F]F-GP2633 under isoflurane anesthesia. A ten-minute static PET scan for each animal was acquired at 30, 60, and 120 min after the injection. 3-Dimensional ordered subset expectation maximization (3D-OSEM) algorithm was used for the PET reconstruction, and CT was applied for attenuation correction. Detailed procedures for the microPET/CT imaging and biodistribution are provided in ESM.
(§2) All animal experiments were conducted according to the guideline of the Nanfang Hospital Animal Ethics Committee at the Southern Medical University. Male or female BALB/c nude mice (about 4-6 weeks old) were obtained from the Laboratory Animal Center at Southern Medical University. The HepG2 and McA-RH7777 HCC xenografts were established by subcutaneous injection of 1×10^6 tumor cells into the left shoulder of nude mice. The animals were used for in vivo studies when the tumors reached a size of 0.5-1 cm in diameter (4-6 weeks after inoculation).
(§3) Inveon Research Workplace (IRW) 3.0 software (Siemens, Germany) was used to measure the regions of interest (ROIs) determined by superimposing the ellipsoid volume of interest (VOI) on the target tissues. The radioactivity concentrations were measured by the mean pixel intensity within each VOI and converted to dose/ml using a calibration constant. Assuming the tissue density of 1 g/ml, the ROI was then converted to dose per gram and normalized as the percent injected dose per gram (% ID/g). Tumor-to-nontarget uptake ratios, including tumor-to-muscle (T/M), tumor-to-liver (T/L), and tumor-to-kidneys (T/K) ratios, were calculated by dividing the radioactivity uptake in tumor by that in the corresponding normal tissue or organ.

[2] = test system: GPC3-negative McA-RH7777 tumor; experiment: as above; format: in vivo, nude mice; conditions: for Tumor-to-muscle (T/M) uptake ratio: McA-RH7777 (GPC3−) tumor bearing mice; for Kidneys uptake / Liver uptake / Tumor uptake: McA-RH7777 (GPC3−) tumor model, PET; for Tumor uptake: decay-corrected
Method: as §1, §2, §3

[3] = In vitro stability in PBS and mouse serum; format: in vitro ADME; conditions: PBS at room temperature and mouse serum at 37° C., 2 h incubation, HPLC
Method: In Vitro Stability. The stability of Al[^18F]F-GP2076 or Al[^18F]F-GP2633 was evaluated in PBS and mouse serum. Briefly, 5.55 MBq of Al[^18F]F-GP2076 or Al[^18F]F-GP2633 was incubated with 0.5 ml of PBS at room temperature or mouse serum at 37° C. with gentle shaking. The stability test was carried out at 2 h after the incubation. For the PBS study, an aliquot of the solution was taken, and the radiochemical purity was determined by analytical HPLC. For the mouse serum study, after the addition of TFA, the mixture was passed through a 0.2-μm filter. An aliquot of the soluble fraction was taken, and the radiochemical purity was examined by analytical HPLC.

[4] = In vivo metabolic stability in HepG2 tumor-bearing mice; conditions: 1 h after intravenous injection
Method: In Vivo Metabolic Stability. HepG2 tumor-bearing mice (n=3/group) were intravenously injected with 5.55 MBq of Al[^18F]F-GP2076 or Al[^18F]F-GP2633. At 1 h after the injection, the mice were euthanized, and the HepG2 tumor, blood, liver, kidneys, and urine samples were collected. Briefly, the blood sample was immediately centrifuged for 5 min at 12,000 rpm. The HepG2 tumor, liver, and kidneys were homogenized and then centrifuged for 5 min at 12,000 rpm. The supernatant from each sample was passed through an ultrafiltration tube (Millipore, USA) and then centrifuged for 10 min at 12,000 rpm. The urine sample was diluted with 100 μl of PBS. The filtrate from each sample was injected into analytic HPLC. The HPLC eluents were collected with a fraction collector (one fraction/30 sec), and the radioactivity of each fraction was measured by gamma counting.

[5] = McA-RH7777 tumor / muscle, read-out: Tumor-to-muscle (T/M) uptake ratio
[6] = intestine, read-out: Intestinal uptake
[7] = decay-corrected, read-out: Tumor uptake
[8] = kidneys, read-out: Kidneys uptake
[9] = muscle, read-out: Muscle uptake
[10] = tumor / kidneys, read-out: Tumor-to-kidneys (T/K) uptake ratio
[11] = tumor / liver, read-out: Tumor-to-liver (T/L) uptake ratio

CC(C)C[C@H](NC(=O)[C@H](CCCNC(=N)N)NC(=O)[C@H](CC(N)=O)NC(=O)[C@H](CC(=O)O)NC(=O)[C@H](CCCNC(=N)N)NC(=O)CNC(=O)CNC(=O)CNC(=S)Nc1ccc(CC2CN(CC(=O)O)CCN(CC(=O)O)CCN2CC(=O)O)cc1)C(=O)N[C@@H](CC(N)=O)C(=O)N[C@H](C(=O)NCC(=O)NCC(=O)N[C@H](C(=O)N[C@@H](Cc1ccc(O)cc1)C(=O)N[C@@H](Cc1ccccc1)C(=O)N[C@@H](CC(C)C)C(=O)N[C@H](C(=O)N[C@H](C(=O)N[C@@H](CCCNC(=N)N)C(=O)N[C@@H](CCC(N)=O)C(=O)O)[C@@H](C)O)[C@@H](C)O)[C@@H](C)O)C(C)C (single isomer, unassigned) [Al[^18F]F-GP2633]
tissue to tissue ratio at 0.5 h [1, 5]: 3.87 ± 1.97
tissue to tissue ratio at 1 h [1, 5]: 6.2 ± 2.67
tissue uptake at 0.5 h ([1]; bone, read-out: Bone uptake): 1.04 %ID/g
tissue uptake at 1 h ([1]; bone, read-out: Bone uptake): 0.8 %ID/g
tissue uptake at 2 h ([1]; bone, read-out: Bone uptake): 0.56 %ID/g
tissue uptake at 0.5 h ([1]; brain, read-out: Brain uptake): 0.78 %ID/g
tissue uptake at 1 h ([1]; brain, read-out: Brain uptake): 0.31 %ID/g
tissue uptake at 2 h ([1]; brain, read-out: Brain uptake): 0.22 %ID/g
tissue uptake at 0.5 h ([1]; heart, read-out: Heart uptake): 1.4 %ID/g
tissue uptake at 1 h ([1]; heart, read-out: Heart uptake): 1 %ID/g
tissue uptake at 2 h ([1]; heart, read-out: Heart uptake): 0.47 %ID/g
tissue uptake at 0.5 h [1, 6]: 1.43 %ID/g
tissue uptake at 1 h [1, 6]: 1.03 %ID/g
tissue uptake at 2 h [1, 6]: 0.65 %ID/g
tissue uptake at 0.5 h [1, 7]: 1.75 %ID/g
tissue uptake at 1 h [1, 7]: 1.64 %ID/g
tissue uptake at 2 h [1, 7]: 0.66 %ID/g
tissue uptake at 0.5 h [1, 8]: 37.5 %ID/g
tissue uptake at 1 h [1, 8]: 35.4 %ID/g
tissue uptake at 2 h [1, 8]: 25.7 %ID/g
tissue uptake at 0.5 h ([1]; liver, read-out: Liver uptake): 1.52 %ID/g
tissue uptake at 1 h ([1]; liver, read-out: Liver uptake): 1.33 %ID/g
tissue uptake at 2 h ([1]; liver, read-out: Liver uptake): 0.88 %ID/g
tissue uptake at 0.5 h ([1]; lung, read-out: Lung uptake): 0.93 %ID/g
tissue uptake at 1 h ([1]; lung, read-out: Lung uptake): 0.74 %ID/g
tissue uptake at 2 h ([1]; lung, read-out: Lung uptake): 0.49 %ID/g
tissue uptake at 0.5 h [1, 9]: 0.53 %ID/g
tissue uptake at 1 h [1, 9]: 0.31 %ID/g
tissue uptake at 2 h [1, 9]: 0.2 %ID/g
tissue to tissue ratio at 0.5 h [1, 10]: 0.05 ± 0.004
tissue to tissue ratio at 1 h [1, 10]: 0.05 ± 0.002
tissue to tissue ratio at 2 h [1, 10]: 0.03 ± 0.004
tissue to tissue ratio at 0.5 h [1, 11]: 1.15 ± 0.09
tissue to tissue ratio at 1 h [1, 11]: 1.23 ± 0.05
tissue to tissue ratio at 2 h [1, 11]: 0.78 ± 0.16
tissue to tissue ratio at 2 h ([1]; tumor / muscle, read-out: Tumor-to-muscle (T/M) uptake ratio): 5.5 ± 3.65
Tumor-to-muscle (T/M) uptake ratio ([2]; 30 min): 3.87±1.97
Tumor-to-muscle (T/M) uptake ratio ([2]; 60 min): 6.20±2.67
Kidneys uptake ([2]; 30 min): 37.47 ± 2.57 % ID/g
Liver uptake ([2]; 30 min): 1.52 ± 0.11 % ID/g
Tumor uptake ([2]; 30 min): 1.75±0.05 % ID/g
Kidneys uptake ([2]; 60 min): 35.40 ± 0.92 % ID/g
Liver uptake ([2]; 60 min): 1.33 ± 0.06 % ID/g
Tumor uptake ([2]; 60 min): 1.64±0.03 % ID/g
Kidneys uptake ([2]; 120 min): 25.70 ± 3.35 % ID/g
Liver uptake ([2]; 120 min): 0.88 ± 0.20 % ID/g
Tumor uptake ([2]; 120 min): 0.66±0.06 % ID/g
percentage of intact radiotracer (in vitro stability) [3]: > 98%
percentage of parent F-18 labeled peptide in HepG2 tumor [4]: 93.01±2.98%
percentage of parent F-18 labeled peptide in blood [4]: 93.57±1.38%
percentage of parent F-18 labeled peptide in kidneys [4]: 7.70±2.56%
percentage of parent F-18 labeled peptide in liver [4]: 92.95±2.77%
percentage of parent F-18 labeled peptide in urine [4]: No parent
